Assay results reported in patent publication US20060134048A1, “Reduction of hair growth” (priority 2004, published 2006).

What was measured:
hamster flank organs = experiment: Golden Syrian Hamster assay; type: in vivo, Golden Syrian hamsters
Experimental: To evaluate the effectiveness of a composition in reducing hair growth (including when used in conjunction with heating), the flank organs of each of a group of hamsters are depilated by applying a thioglycolate based chemical depilatory (Surgex) and/or shaved. To one organ of each animal 10 μl. of vehicle alone once a day is applied, while to the other organ of each animal an equal amount of vehicle containing the HSP inhibitor or compound that promotes apoptosis under evaluation is applied. After three weeks of topical applications (one application per day for five days a week), with heating at a selected time(s) if the composition is used in conjunction with heating) the flank organs are shaved and the amount of recovered hair (hair mass) from each is weighed. Percent-reduction of hair growth is calculated by subtracting the hair mass (mg) value of the test compound treated side from the hair mass value of the vehicle treated side; the delta value obtained is then divided by the hair mass value of the vehicle treated side, and the resultant number is multiplied by 100. A composition including a vehicle 15% DMSO, 65% ethanol, 10% propylene glycol, and 10% di-propylene glycol and 5% quercetin by weight was tested in the Golden Syrian Hamster assay. […]

Human hair follicles = experiment: Human hair follicle growth assay; type: cell-based; settings: 24 hours pre-incubation with 0.1 mM caffeine, then laser 0.75W for 100 msec; hair shaft growth after four to six days
Experimental: Human Hair Follicle Growth Assay:
Human hair follicles in growth phase (anagen) were isolated from face-lift tissue (obtained from plastic surgeons) under dissecting scope using a scalpel and watchmakers forceps. The skin was sliced into thin strips exposing 2-3 rows of follicles that could readily be dissected. Follicles were placed into 0.5 ml William's E medium (Life Technologies, Gaithersburg, Md.) supplemented with 2 mM L-glutamine, 10 μg/ml insulin, 10 ng/ml hydrocortisone, 100 units of penicillin, 0.1 mg/ml streptomycin and 0.25 μg/ml amphotericin B. The follicles were incubated in 24-well plates (1 follicle/well) at 37° C. in an atmosphere of 5% CO2 and 95% air. The HSP inhibitor or compound that promotes apoptosis is dissolved into dimethyl sulfoxide as 100-fold stock solution. […] The length of hair follicle was assessed using an image analysis software system. The growth of hair fiber was calculated by the subtracting the follicle length on day 0 from that determined on day 7.
Hair follicles were pre-incubated for 24 hours with 0.1 mM concentration of caffeine, and then some of the follicles were laser treated at 0.75W for 100 msec using a Coherent diode laser system. The length of each follicle was measured and the follicles then were placed in a 37° C. incubator for four to six days. Following incubation the hair shaft growth was measured.

Structure (SMILES)	hair growth inhibition (hamster flank organs; 5% quercetin for four days prior to 15W/0.75 sec laser, compared to flank organs given the same laser pulse without quercetin pretreatment) [%]	hair growth inhibition (hamster flank organs; 5% quercetin topical only, three weeks, compared to vehicle control flank organs) [%]	reduction in hair growth compared with the control group (Human hair follicles)
O=c1c(O)c(-c2ccc(O)c(O)c2)oc2cc(O)cc(O)c12 [quercetin]	36	15	–
Cn1c(=O)c2c(ncn2C)n(C)c1=O [caffeine]	–	–	significant reduction in hair growth
